Experiments:
[1] = molecular target: T1, 488-GAC (mouse kidney-type glutaminase isoform 2, GAC) (Mus musculus, UniProt D3Z7P3); assay: Real-time binding assay, quenching of 488-GAC fluorescence; conditions: 10 nM 488-GAC, 10 μM BPTES
T1 construct: (residues 72-603) was cloned into a pET23a vector; His-tag with thrombin cleavage site (N, cleaved yes); made in house
T1 sequence (D3Z7P3 72-603 isoform D3Z7P3-2): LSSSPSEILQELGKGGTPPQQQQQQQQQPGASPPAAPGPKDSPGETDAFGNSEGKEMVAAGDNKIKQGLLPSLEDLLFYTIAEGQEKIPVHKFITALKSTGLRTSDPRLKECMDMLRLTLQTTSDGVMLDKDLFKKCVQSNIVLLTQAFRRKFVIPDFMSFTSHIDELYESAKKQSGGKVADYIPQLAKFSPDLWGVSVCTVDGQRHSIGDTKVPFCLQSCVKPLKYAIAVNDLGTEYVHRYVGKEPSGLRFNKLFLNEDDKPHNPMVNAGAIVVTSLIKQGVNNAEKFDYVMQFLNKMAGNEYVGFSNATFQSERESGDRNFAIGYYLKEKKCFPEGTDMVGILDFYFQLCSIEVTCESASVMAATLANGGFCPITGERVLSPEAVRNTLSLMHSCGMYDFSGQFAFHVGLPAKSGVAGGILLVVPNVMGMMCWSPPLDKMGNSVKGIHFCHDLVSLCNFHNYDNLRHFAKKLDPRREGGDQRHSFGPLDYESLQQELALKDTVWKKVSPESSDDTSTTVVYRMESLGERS
Procedure: A plasmid encoding the mouse kidney-type glutaminase isoform 2 (GAC, GenBank Accession No. NP_001106854.1, which is hereby incorporated by reference in its entirety) (residues 72-603) was cloned into a pET23a vector containing an N-terminal histidine (His)-tag and thrombin cleavage site. The expressed protein was purified using Co^2+ affinity beads (Clontech), followed by His-tag cleavage with human thrombin (Haemetologic Technologies) overnight at 4° C., and subsequently purified by anion exchange (GE healthcare) and gel filtration chromatography. […] The stoichiometry of labeling was determined using the probe manufacturer's reported molar absorptivity values and instructions. Briefly, the concentration of GAC was determined by first correcting absorbance at 280 nm (Abs280) for each probe, using the reported correction values (0.11 for AlexaFluor 488 and 0.23 for QSY-9) and their absorbance values at their absorbance maxima (495 nm and 562 nm, respectively). The corrected Abs280 was used along with the experimentally determined molar absorptivity of GAC (ε280=38,850 M−1 cm−1). AlexaFluor 488 and QSY-9 probes were quantified using their respective absorbance maxima and the manufacturer's reported molar absorptivity values (ε495=71,000 M−1 cm−1 and ε562=85,000 M−1 cm−1). […]

[2] = molecular target: T2, 488-GAC and QSY9-GAC (Mus musculus, UniProt D3Z7P3); assay: FRET assay for GAC tetramer formation; assay type: binding; conditions: 25 nM 488-GAC and 25 nM QSY9-GAC
T2 construct: (residues 72-603) was cloned into a pET23a vector; His-tag with thrombin cleavage site (N, cleaved yes); made in house
T2 sequence (D3Z7P3 72-603 isoform D3Z7P3-2): T1 sequence (D3Z7P3 72-603 isoform D3Z7P3-2)
Procedure: Fluorescence experiments were performed using a Varian Cary Eclipse Fluorometer in the counting mode. Excitation and emission wavelengths were 490 and 520 nm, respectively. Experiments were all performed using 1-mL samples with continuous stirring at 20° C. in 50 mM Tris-Acetate, pH 8.5, 0.1 mM ethylenediamine tetraacetic acid (EDTA). For wild-type (WT) GAC titrations in the absence of inorganic phosphate, 25 nM 488-GAC was equilibrated with 25 μL of QSY9-GAC (at varying concentrations) and allowed to equilibrate for 10 minutes, at which point 75 μL of the appropriate concentration of unlabeled WT GAC was added to provide a 10-fold excess over labeled-GAC. To test whether the purified GAC mutants can form oligomers with WT GAC, 200 nM QSY9-GAC (D391K) or 200 nM QSY9-GAC (D391K, K316E, R459E) was added to an equilibrated sample of 20 nM 488-WT GAC. When assaying the effects of BPTES and 968 on oligomer formation, BPTES or 968 was added following equilibration of a sample of 25 nM QSY9-WT GAC and 25 nM 488-WT GAC. Both BPTES and 968 were prepared in DMSO, and appropriate dilutions were made so that less than 2% (v/v) DMSO was added to an experimental sample.

[3] = molecular target: T3, GAC (Mus musculus, UniProt D3Z7P3); assay: Real-time GAC enzyme activity assay coupled to glutamate dehydrogenase (NADH fluorescence); assay type: biochemical; conditions: for concentration inhibiting the GAC isoform compared with parent compound 968: in vitro inhibition, FIG. 9 / FIG. 11
T3 construct: (residues 72-603) was cloned into a pET23a vector; His-tag with thrombin cleavage site (N, cleaved yes); made in house
T3 sequence (D3Z7P3 72-603 isoform D3Z7P3-2): T1 sequence (D3Z7P3 72-603 isoform D3Z7P3-2)
Procedure: A plasmid encoding the mouse kidney-type glutaminase isoform 2 (GAC, GenBank Accession No. NP_001106854.1, which is hereby incorporated by reference in its entirety) (residues 72-603) was cloned into a pET23a vector containing an N-terminal histidine (His)-tag and thrombin cleavage site. The expressed protein was purified using Co^2+ affinity beads (Clontech), followed by His-tag cleavage with human thrombin (Haemetologic Technologies) overnight at 4° C., and subsequently purified by anion exchange (GE healthcare) and gel filtration chromatography. Purified GAC was stored in a high salt-containing buffer (20 mM Tris-HCl pH 8.5, 500 mM NaCl, 1 mM NaN3) at −80° C., following snap freezing in liquid N2 for long term use. Labeling recombinant GAC with small molecule probes was performed by exchanging 1.5 mg of enzyme into 50 mM HEPES, pH 7.2, and 100 mM NaCl (labeling buffer), using a PD10 desalting column (GE healthcare). The enzyme was then incubated with 50 μM (5-fold excess of enzyme) of either AlexaFluor 488 succinimidyl ester or QSY9 succinimidyl ester (Molecular Probes) for 1 hour at 4° C. After 1 hour, the labeling reaction was quenched with 150 mM Tris-HCl, pH 8.5, and unreacted probe was separated from labeled-enzyme using a PD10 desalting column, eluting labeled-GAC back into the high salt-containing buffer. The stoichiometry of labeling was determined using the probe manufacturer's reported molar absorptivity values and instructions. Briefly, the concentration of GAC was determined by first correcting absorbance at 280 nm (Abs280) for each probe, using the reported correction values (0.11 for AlexaFluor 488 and 0.23 for QSY-9) and their absorbance values at their absorbance maxima (495 nm and 562 nm, respectively). The corrected Abs280 was used along with the experimentally determined molar absorptivity of GAC (ε280=38,850 M−1 cm−1). AlexaFluor 488 and QSY-9 probes were quantified using their respective absorbance maxima and the manufacturer's reported molar absorptivity values (ε495=71,000 M−1 cm−1 and ε562=85,000 M−1 cm−1).
Real-time fluorescence monitoring of 968 binding and GAC activity through production of NADH was performed on a Varian Cary Eclipse Fluorometer, whereas small molecule inhibition and binding titrations were performed in a 96-well format in a Tecan Saphire absorbance and fluorescence plate reader. Samples for monitoring real-time binding of 968 to 488-GAC were prepared by adding 10 μL of varying concentrations of 968 prepared in DMSO to an equilibrated 1 mL sample of 10 nM 488-GAC, while observing 488 fluorescence (490 nm excitation/520 nm emission). Similarly, this method was replicated for monitoring real-time binding of 968 to mutant forms of GAC, namely 488-labeled GAC (GD391K) and 488-GAC (D391K, K316E, R459E). Real-time activity assays monitoring 968 binding and NADH production were prepared in 1 mL samples, where 10 units of glutamate dehydrogenase (Sigma) and 2 mM NAD+ (Sigma) were prepared in 50 mM Tris-Acetate, pH 8.5, 0.1 mM EDTA and equilibrated at 20° C. WT GAC (10 nM) was added and allowed to equilibrate 2 minutes before monitoring the fluorescence emission of 488-GAC (490 nm excitation, 520 nm emission) and NADH (340 nm excitation, 490 nm emission). Appropriate dilutions of 968 or BPTES prepared in DMSO were introduced after 30 seconds and allowed to equilibrate for 2 minutes before a 180 μL solution of K2HPO4 and glutamine was added to make a final concentration of 50 mM K2HPO4 and 20 mM glutamine, to initiate GAC activation. The activity of GAC was measured in a coupled assay, by monitoring the NADH produced by glutamate dehydrogenase, which converts the product of the glutaminase-catalyzed reaction, glutamate, to α-ketoglutarate and ammonia by reducing NAD+ to NADH. […]

Structure (SMILES)	concentration inhibiting the GAC isoform compared with parent compound 968 [3]	other results
O=C(Cc1ccccc1)Nc1nnc(CCSCCc2nnc(NC(=O)Cc3ccccc3)s2)s1 [BPTES]		effect on 488-GAC fluorescence [1]: does not directly affect; effect on GAC tetramer formation (488-GAC emission in mixture with QSY9-GAC) [2]: immediate quenching; inhibition of GAC activity ([3]; 10 nM 488-GAC, 10 μM BPTES): strongly inhibits
CC1(C)CC(=O)C2=C(C1)c1c(ccc3cc4ccccc4cc13)NC2c1ccc(C2(C(F)(F)F)N=N2)cc1 (centres unmarked) [SU-24]	lower concentration than the parent compound, 968	
CN(C)c1ccc(C2Nc3c(ccc4ccccc34)C3=C2C(=O)CC(C)(C)C3)cc1Br (centres unmarked) [SU-1]	lower concentration than the parent compound, 968	
CC1(C)CC(=O)C2=C(C1)c1cc(-c3ccccc3)ccc1NC2c1ccc(-c2ccccc2)cc1 (centres unmarked) [SU-15]	lower concentration than the parent compound, 968	
CN(C)c1ccc(C2Nc3ccc4ccccc4c3C3=C2C(=O)CC(c2ccccc2)C3)cc1Br (centres unmarked) [SU-10]	lower concentration than the parent compound, 968	
CN(C)c1ccc(CNc2cccc3ccccc23)cc1Br [SU-20]	lower concentration than the parent compound, 968	
CN(C)c1ccc(C2Nc3ccc4cc5ccccc5cc4c3C3=C2C(=O)CC(C)(C)C3)cc1Br (centres unmarked) [SU-14]	lower concentration than the parent compound, 968	
CCN(CC)c1ccc(CNc2ccc3ccccc3c2)cc1[NH2+][O-] [SU-31]	lower concentration than the parent compound, 968	
[O-][NH2+]c1cc(CNc2ccc3ccccc3c2)ccc1N1CCCC1 [SU-29]	lower concentration than the parent compound, 968	
